# Data reported in PubChem BioAssay AID1919001 (Molecular Pharmacology Branch, DTP, NCI, 2023).
# Where “and” joins values, the source holds several entries; their conditions need not be identical. Equal values may be shown once.
# Test system: 699152-130-R-J1-PDC complex spheroid growth
# Test: Anticancer human tumor 699152-130-R-J1-PDC patient-derived pancreatic carcinoma cell line growth inhibition [AhR]
# Conditions: for viability, T/C: stronger effect = lower value
# In short: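 Agents were dosed in half-log steps down from roughly clinical Cmax, or from 10 microM where Cmax was unknown, alone and with AhR antagonists. Read-out: percent test/control growth of tumor spheroids containing HUVEC and MSC stromal cells.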
# [1] = curve of first compound, second compound 0.1 µM
# [2] = curve of first compound, second compound 0.316 µM
# [3] = curve of first compound, second compound 1 µM
# [4] = curve of first compound, second compound 3.16 µM
# [5] = curve of first compound, second compound 10 µM
# [6] = second compound 0.1 µM, first compound 0.0316 µM
# [7] = second compound 0.1 µM, first compound 0.1 µM
# [8] = second compound 0.316 µM, first compound 0.0316 µM
# [9] = second compound 0.316 µM, first compound 0.1 µM
# [10] = second compound 1 µM, first compound 0.0316 µM
# [11] = second compound 1 µM, first compound 0.1 µM
# [12] = second compound 3.16 µM, first compound 0.0316 µM
# [13] = second compound 3.16 µM, first compound 0.1 µM
# [14] = second compound 10 µM, first compound 0.0316 µM
# [15] = second compound 10 µM, first compound 0.1 µM
# 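Note: compound exposure lasted 7 days after spheroids had grown for 3 days.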
compound,measurement,setting,value
CC[C@@]1(O)C(=O)OCc2c1cc1n(c2=O)Cc2cc3c(CN(C)C)c(O)ccc3nc2-1 + Cc1cncc(-c2nc(NCCc3c[nH]c4ccccc34)c3ncn(C(C)C)c3n2)c1,IC50,[1],> 100 nM
same,IC50,[2],> 100 nM
same,IC50,[3],> 100 nM
same,IC50,[4],> 100 nM
same,IC50,[5],< 0.316 nM
same,"viability, T/C","second compound 0.1 µM, first compound 0.000316 µM",102%
same,"viability, T/C","second compound 0.1 µM, first compound 0.001 µM",98.5%
same,"viability, T/C","second compound 0.1 µM, first compound 0.00316 µM",100%
same,"viability, T/C","second compound 0.1 µM, first compound 0.01 µM",101%
same,"viability, T/C",[6],80.7%
same,"viability, T/C",[7],69.6%
same,"viability, T/C","second compound 0.316 µM, first compound 0.000316 µM",101%
same,"viability, T/C","second compound 0.316 µM, first compound 0.001 µM",98.4%
same,"viability, T/C","second compound 0.316 µM, first compound 0.00316 µM",98%
same,"viability, T/C","second compound 0.316 µM, first compound 0.01 µM",93.9%
same,"viability, T/C",[8],80.3%
same,"viability, T/C",[9],66.5%
same,"viability, T/C","second compound 1 µM, first compound 0.000316 µM",105%
same,"viability, T/C","second compound 1 µM, first compound 0.001 µM",107%
same,"viability, T/C","second compound 1 µM, first compound 0.00316 µM",105%
same,"viability, T/C","second compound 1 µM, first compound 0.01 µM",99.4%
same,"viability, T/C",[10],83.9%
same,"viability, T/C",[11],62.9%
same,"viability, T/C","second compound 3.16 µM, first compound 0.000316 µM",112%
same,"viability, T/C","second compound 3.16 µM, first compound 0.001 µM",92.8%
same,"viability, T/C","second compound 3.16 µM, first compound 0.00316 µM",95%
same,"viability, T/C","second compound 3.16 µM, first compound 0.01 µM",93.7%
same,"viability, T/C",[12],64%
same,"viability, T/C",[13],54.7%
same,"viability, T/C","second compound 10 µM, first compound 0.000316 µM",12.6%
same,"viability, T/C","second compound 10 µM, first compound 0.001 µM",11.5%
same,"viability, T/C","second compound 10 µM, first compound 0.00316 µM",10.6%
same,"viability, T/C","second compound 10 µM, first compound 0.01 µM",12.1%
same,"viability, T/C",[14],11.1%
same,"viability, T/C",[15],14.1%
NS(=O)(=O)OCC1CC(n2ccc3c(NC4CCc5ccccc54)ncnc32)CC1O (configuration not stated) + Cc1cncc(-c2nc(NCCc3c[nH]c4ccccc34)c3ncn(C(C)C)c3n2)c1,IC50,[1],898 nM
same,IC50,[2],837 nM
same,IC50,[3],889 nM
same,IC50,[4],512 nM
same,IC50,[5],< 31.6 nM
same,"viability, T/C",[6],112%
same,"viability, T/C",[7],128%
same,"viability, T/C","second compound 0.1 µM, first compound 0.316 µM",145%
same,"viability, T/C","second compound 0.1 µM, first compound 1 µM",41.8%
same,"viability, T/C","second compound 0.1 µM, first compound 3.16 µM",21.5%
same,"viability, T/C","second compound 0.1 µM, first compound 10 µM",20.9%
same,"viability, T/C",[8],114%
same,"viability, T/C",[9],132%
same,"viability, T/C","second compound 0.316 µM, first compound 0.316 µM",147%
same,"viability, T/C","second compound 0.316 µM, first compound 1 µM",35.2%
same,"viability, T/C","second compound 0.316 µM, first compound 3.16 µM",18.9%
same,"viability, T/C","second compound 0.316 µM, first compound 10 µM",21.4%
same,"viability, T/C",[10],131%
same,"viability, T/C",[11],156%
same,"viability, T/C","second compound 1 µM, first compound 0.316 µM",149%
same,"viability, T/C","second compound 1 µM, first compound 1 µM",39.1%
same,"viability, T/C","second compound 1 µM, first compound 3.16 µM",18.8%
same,"viability, T/C","second compound 1 µM, first compound 10 µM",18.3%
same,"viability, T/C",[12],104%
same,"viability, T/C",[13],103%
same,"viability, T/C","second compound 3.16 µM, first compound 0.316 µM",74.2%
same,"viability, T/C","second compound 3.16 µM, first compound 1 µM",16.5%
same,"viability, T/C","second compound 3.16 µM, first compound 3.16 µM",8.14%
same,"viability, T/C","second compound 3.16 µM, first compound 10 µM",9.66%
same,"viability, T/C",[14],23.7%
same,"viability, T/C",[15],17.8%
same,"viability, T/C","second compound 10 µM, first compound 0.316 µM",10.1%
same,"viability, T/C","second compound 10 µM, first compound 1 µM",5.16%
same,"viability, T/C","second compound 10 µM, first compound 3.16 µM",4.2%
same,"viability, T/C","second compound 10 µM, first compound 10 µM",3.67%
Nc1ncn(C2CC(O)C(CO)S2)c(=O)n1 (configuration not stated),"viability, T/C",compound 0.000949 µM,98% and 103% and 102%
same,"viability, T/C",compound 0.003 µM,105% and 110% and 111%
same,"viability, T/C",compound 0.00949 µM,97% and 102% and 112%
same,"viability, T/C",compound 0.03 µM,99.5% and 104% and 110%
same,"viability, T/C",compound 0.0949 µM,110% and 101% and 95.2%
same,"viability, T/C",compound 0.3 µM,111% and 96.2% and 102%
same,IC50,curve of compound,> 300 nM
